Values of other authors as cited in patent US20260293888A1, “METHODS OF TREATING MOLD” (priority 2023, published 2026).

SMILES: OCCOCCOCCO [Triethylene glycol, triethylene glycol]
- flash point (TEG alone): 157 °C
- boiling point (at a pressure of 101.325 kPa): 286.5 °C
- vapor pressure (compared to water): relative low vapor pressure compared to water
- miscibility with water (water): miscible with water
